The values below come from PubChem BioAssay (NCI).

Values joined by “and” are separate entries in the source; they are usually repeats but may differ in a detail not shown here. Identical values can stand only once.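 Protocol summary: plate cells (96-well), add compound at 5 concentrations, incubate 48 h, interpolate endpoints linearly. GI50 marks 50% less growth. TGI denotes the concentration required for complete inhibition of growth.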 Where only a bound is given, the exact number is not on record here.

Common to all, as to assay: NCI-60 cell line screen, 48 h
Experiment [1] relates to CCRF-CEM leukemia.
Experiment [2] deals with COLO 205 colon.
Experiment [3] deals with HCT-116 colon.
The subject of experiment [4] is HOP-62 NSCLC.
The subject of experiment [5] is LOX IMVI melanoma.
Experiment [6] relates to MDA-MB-231 breast.
Experiment [7] relates to RPMI-8226 leukemia.
Experiment [8] deals with SF-268 CNS.
In experiment [9] the test system is SNB-75 CNS.
Experiment [10] concerns UACC-62 melanoma.

With `CS(=O)(=O)Nc1cccc(-c2ccc3c(NC(=O)C4CC4)n[nH]c3c2)c1`, the GI50 is 1330 nM in experiment [1]; 1.81 µM in [2]; 1510 nM in [3]; 1.16 µM in experiment [4]; 1820 nM in experiment [5]; 6.35 µM in experiment [6]. The GI50 was 10.8 µM in experiment [7], 2.78 µM in [8], 4.6 µM in [9] and 1030 nM in [10]. Besides, the TGI in [1] is greater than 25 µM; in experiment [2], greater than 12.9 µM; in experiment [3] it was greater than 25 µM; in experiment [4] it was greater than 21.5 µM; in experiment [5], greater than 25 µM; in experiment [6], greater than 25 µM. The TGI in experiment [7], in experiment [8], in experiment [9] and in experiment [10] was greater than 25 µM throughout.

With `COc1cc(C2CC(c3ccc(Nc4ccnc5cc(Cl)ccc45)cc3)=NN2C=O)cc(OC)c1OC` (stereo unspecified), the GI50 in [1] is 1820 nM; in experiment [2], 3.73 µM; in experiment [3] it was 3210 nM; in experiment [4], 4.13 µM; in experiment [5] it was 1890 nM; in experiment [6] it was 4.39 µM. The GI50 was 2.56 µM in [7], 28 µM in [8], 5.19 µM in experiment [9] and 2200 nM in [10]. Further, the TGI in experiment [1] is 69.4 µM; in experiment [2], 70.4 µM; in experiment [3] it was 9.61 µM; in [4] it was 20.8 µM; in experiment [5], 3.85 µM; in [6] it was 54 µM. In addition, the TGI in experiment [7] is 8.63 µM; in experiment [8], greater than 100 µM; in experiment [9], 32.5 µM; in experiment [10], 6.87 µM.

Take `O=C1c2cccc3cccc(c23)C(=O)N1CCCCN1CCN(CCCCOc2ccc(-c3nc4ccc(N5CCOCC5)cc4[nH]3)cc2)CC1`: the GI50 in experiment [1] is greater than 100000 nM; in [2], greater than 100 µM; in experiment [3] it was greater than 100000 nM; in experiment [4], greater than 100 µM; in experiment [5], 9780 nM; in experiment [6] it was 9.16 µM. In addition, the GI50 is greater than 100 µM in experiment [7], greater than 100 µM in [8], greater than 100 µM in [9] and greater than 100000 nM in experiment [10]. Moreover, the TGI in [1], in [2], in [3], in experiment [4], in experiment [5] and in [6] was greater than 100 µM each time. Besides, the TGI in experiment [7], in experiment [8], in [9] and in experiment [10] was greater than 100 µM each time.

Regarding `CCN(CC)CCCNc1nc2ccccc2c2c(=O)c3cc(Cl)ccc3sc12`, the GI50 in experiment [1] was 2810 nM; in experiment [2] it was 2.33 µM; in [3] it was 1730 nM; in [4], 3.05 µM; in experiment [5], 1650 nM; in experiment [6], 1.45 µM. The GI50 was 3.2 µM in [7], 3.26 µM in experiment [8], 4.36 µM in experiment [9] and 1760 nM in [10]. The TGI is 8.68 µM in [1]; 5.58 µM in experiment [2]; 3.22 µM in experiment [3]; 15.8 µM in experiment [4]; 3.08 µM in experiment [5]; 3.27 µM in experiment [6]. For the same compound, the TGI was 10.1 µM in [7], 14.3 µM in experiment [8], 18.3 µM in experiment [9] and 3.39 µM in [10].

For `COc1ccc2cc3[n+](cc2c1OC)CCc1cc2c(cc1-3)OCO2`, the GI50 in experiment [1] was 9290 nM; in [2], 7.46 µM [middle of 5 runs]; in experiment [6] it was 15.9 µM; in [8], 4.68 µM; in experiment [9], 21.4 µM; in experiment [10], 7240 nM. For the same compound, the TGI in experiment [2] was 33.3 µM [middle of 5 runs]; in experiment [3] it was > 100 µM and > 76.7 µM and 79.8 µM; in experiment [4] it was > 100 µM and 42.4 µM; in experiment [5] it was greater than 201 µM; in experiment [6], greater than 100 µM; in experiment [7], greater than 100 µM.

Regarding `C=C(C)[C@@H]1CC[C@]2(C(=O)O)CC[C@]3(C)[C@H](CC[C@@H]4[C@@]5(C)C[C@@H](CC#Cc6ccc(Br)cc6)C(=O)C(C)(C)[C@@H]5CC[C@]43C)[C@@H]12`, the GI50 in experiment [1] is 3570 nM; in [2] it was 18.2 µM; in [3], 4340 nM; in experiment [4], 12.4 µM; in experiment [5] it was 5650 nM; in [6], 3.67 µM. Also, the GI50 in [7] was 9.08 µM; in experiment [8], 6.23 µM; in experiment [9], 13.5 µM; in experiment [10] it was 2690 nM. In addition, the TGI in experiment [1] was greater than 100 µM; in [2], greater than 100 µM; in [3], 83.3 µM; in [4], 38.4 µM; in experiment [5] it was greater than 100 µM; in experiment [6] it was 14.8 µM. The TGI in experiment [7] is greater than 100 µM; in experiment [8] it was greater than 100 µM; in experiment [9], 34.6 µM; in [10], 8.34 µM.

`C/C1=C\CC[C@@]2(C)O[C@@H]2C[C@@H]2[C@H](C/C(C)=C/CC1)OC(=O)C21CCN=N1` (stereo partly specified): the GI50 in [1] was 44900 nM; in [2] it was greater than 100 µM; in experiment [3], greater than 100000 nM; in experiment [4], greater than 100 µM; in experiment [6], greater than 100 µM; in experiment [7], greater than 100 µM. Also, the results for the GI50 in experiment [8], in [9] and in experiment [10] were greater than 100 µM, greater than 100 µM and greater than 100000 nM, respectively. Moreover, the TGI in experiment [1] is 75 µM and > 100 µM; in experiment [2], greater than 100 µM; in [3], greater than 100 µM; in experiment [4], 75 µM and > 100 µM; in experiment [5] it was 75 µM; in experiment [6], greater than 100 µM. Further, the TGI in experiment [7] was 75 µM and > 100 µM; in experiment [8], greater than 100 µM; in experiment [9] it was 75 µM and > 100 µM; in experiment [10] it was greater than 100 µM.

As to `Cc1ccc(NSc2ccccc2[N+](=O)[O-])cc1`, the GI50 in experiment [1] was 850 nM; in [2] it was 0.149 µM; in experiment [3] it was 480 nM; in [4], 0.283 µM; in experiment [5], 912 nM; in experiment [6], 1.06 µM. Further, the GI50 in experiment [7] is 0.925 µM; in [8], 1.15 µM; in [9], 0.557 µM; in experiment [10] it was 157 nM. For the same compound, the TGI in [1] was greater than 52.2 µM; in experiment [2] it was 3.44 µM; in experiment [3], 12.1 µM; in [4] it was 18.8 µM; in experiment [5] it was 18.5 µM; in experiment [6], 15.5 µM. The TGI in experiment [7] amounted to 52.3 µM; in experiment [8], 19.7 µM; in experiment [9], 9.32 µM; in [10], 17 µM.
